Source: PubChem BioAssay AID328 (DTP/NCI, 2004)
Where “and” joins values, the source holds several entries; their conditions need not be identical. Equal values may be shown once. Inconclusive results and toxic doses are left out. The calls were made as follows: active = survival T/C of 150% or more; inactive = T/C below 125% in these data.

Test system: BDF1 mice, P388 leukemia ip, median survival T/C
Assay: NCI In Vivo Anticancer Drug Screen. Data for tumor model P388 Leukemia (intraperitoneal) in B6D2F1 (BDF1) mice
Conditions: endpoint: median survival time, higher = longer survival
How it was run: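 Mice carrying the transplantable tumour receive compound or vehicle. Survival is followed in each arm, and the treated measure is divided by the vehicle measure.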

[1] = dose: 100.0 mg/kg/injection, schedule: Q04DX003 (ip), vehicle: saline with Tween-80
[2] = dose: 200.0 mg/kg/injection, schedule: Q04DX003 (ip), vehicle: saline with Tween-80
[3] = dose: 400.0 mg/kg/injection, schedule: Q04DX003 (ip), vehicle: saline with Tween-80
[4] = dose: 50.0 mg/kg/injection, schedule: Q01DX009 (ip), vehicle: saline with Tween-80
[5] = dose: 100.0 mg/kg/injection, schedule: Q01DX009 (ip), vehicle: saline with Tween-80
[6] = dose: 200.0 mg/kg/injection, schedule: Q01DX009 (ip), vehicle: saline with Tween-80
[7] = dose: 50.0 mg/kg/injection, schedule: Q04DX003 (ip), vehicle: saline with Tween-80

Measured: T/C

O=C(O)c1ccc(N2C(=O)C=CC2=O)cc1 (tested in a mixture with another compound)
inactive: dose: 0.39 mg/kg/injection, schedule: Q01DX009 (ip), vehicle: Klucel (hydroxypropylcellulose) (HPC) 95 % of control | dose: 0.78 mg/kg/injection, schedule: Q01DX009 (ip), vehicle: Klucel (hydroxypropylcellulose) (HPC) 108 % of control | dose: 1.25 mg/kg/injection, schedule: Q01DX001 (ip), vehicle: Klucel (hydroxypropylcellulose) (HPC) 100 % of control | dose: 1.56 mg/kg/injection, schedule: Q01DX009 (ip), vehicle: Klucel (hydroxypropylcellulose) (HPC) 95 % of control | dose: 2.5 mg/kg/injection, schedule: Q01DX001 (ip), vehicle: Klucel (hydroxypropylcellulose) (HPC) 104 % of control | dose: 3.12 mg/kg/injection, schedule: Q01DX009 (ip), vehicle: Klucel (hydroxypropylcellulose) (HPC) 110 % of control | dose: 4.6 mg/kg/injection, schedule: Q04DX003 (ip), vehicle: Klucel (hydroxypropylcellulose) (HPC) 95 % of control | dose: 5.0 mg/kg/injection, schedule: Q01DX001 (ip), vehicle: Klucel (hydroxypropylcellulose) (HPC) 104 % of control | dose: 7.0 mg/kg/injection, schedule: Q04DX003 (ip), vehicle: Klucel (hydroxypropylcellulose) (HPC) 95 % of control | dose: 10.0 mg/kg/injection, schedule: Q04DX003 (ip), vehicle: Klucel (hydroxypropylcellulose) (HPC) 100 % of control

C=CCCCCn1c2ccccc2c2c(C)c3cnccc3c(C)c21
inactive: [1] 109 % of control | [2] 100 % of control | [3] 118 % of control

CC(=O)OC1CC2(O)C(CCC3(C)C(c4ccc(=O)oc4)CCC32O)C2(C)C1=CC(O)C1OC12 (centres undefined)
inactive: dose: 0.05 mg/kg/injection, schedule: Q01DX010 (ip), vehicle: carboxymethylcellulose (CMC) 105 % of control | dose: 0.1 mg/kg/injection, schedule: Q01DX010 (ip), vehicle: carboxymethylcellulose (CMC) 95 % of control | dose: 0.2 mg/kg/injection, schedule: Q01DX010 (ip), vehicle: carboxymethylcellulose (CMC) 105 % of control | dose: 0.5 mg/kg/injection, schedule: Q01DX010 (ip), vehicle: carboxymethylcellulose (CMC) 90 % of control

O=C1C=CC(=O)c2c(Cl)ccc(O)c21
inactive: dose: 0.63 mg/kg/injection, schedule: Q01DX009 (ip), vehicle: Klucel (hydroxypropylcellulose) (HPC) 116 % of control

COc1cc2ccc3c(c2cc1OC)C(=O)CNC3C (centres undefined)
inactive: dose: 3.13 mg/kg/injection, schedule: Q01DX009 (ip), vehicle: saline 104 % of control | dose: 3.13 mg/kg/injection, schedule: Q04DX003 (ip), vehicle: saline 109 % of control | dose: 6.25 mg/kg/injection, schedule: Q01DX009 (ip), vehicle: saline 100 % of control | dose: 6.25 mg/kg/injection, schedule: Q04DX003 (ip), vehicle: saline 100 % of control | dose: 12.5 mg/kg/injection, schedule: Q01DX009 (ip), vehicle: saline 100 % of control | dose: 12.5 mg/kg/injection, schedule: Q04DX003 (ip), vehicle: saline 109 % of control

Cc1ccc2c(c1)NC(c1ccc(C(=O)O)cc1)c1cccn1-2 (centres undefined)
inactive: [4] 86 % of control | [5] 89 % of control | [6] 91 % of control

Cc1cc(NS(=O)(=O)c2ccccc2)ccc1NS(=O)(=O)c1ccccc1
inactive: dose: 75.0 mg/kg/injection, schedule: Q01DX009 (ip), vehicle: Klucel (hydroxypropylcellulose) (HPC) 87 % of control | dose: 100.0 mg/kg/injection, schedule: Q04DX003 (ip), vehicle: Klucel (hydroxypropylcellulose) (HPC) 104 % of control | dose: 150.0 mg/kg/injection, schedule: Q01DX009 (ip), vehicle: Klucel (hydroxypropylcellulose) (HPC) 100 % of control | dose: 200.0 mg/kg/injection, schedule: Q04DX003 (ip), vehicle: Klucel (hydroxypropylcellulose) (HPC) 100 % of control | dose: 300.0 mg/kg/injection, schedule: Q01DX009 (ip), vehicle: Klucel (hydroxypropylcellulose) (HPC) 87 % of control | dose: 400.0 mg/kg/injection, schedule: Q04DX003 (ip), vehicle: Klucel (hydroxypropylcellulose) (HPC) 95 % of control

CCN(C)c1nc(N(C)CC)c2nc(N(C)CC)nc(N(C)CC)c2n1
inactive: dose: 3.13 mg/kg/injection, schedule: Q01DX009 (ip), vehicle: Klucel (hydroxypropylcellulose) (HPC) 108 % of control | dose: 6.25 mg/kg/injection, schedule: Q01DX009 (ip), vehicle: Klucel (hydroxypropylcellulose) (HPC) 99 % of control | dose: 12.5 mg/kg/injection, schedule: Q01DX009 (ip), vehicle: Klucel (hydroxypropylcellulose) (HPC) 99 % of control | dose: 25.0 mg/kg/injection, schedule: Q01DX009 (ip), vehicle: Klucel (hydroxypropylcellulose) (HPC) 106 % of control

COc1ccc(C2CCc3cc(OC)c(OC)cc3C2=O)cc1OC (centres undefined)
inactive: dose: 20.0 mg/kg/injection, schedule: Q01DX009 (ip), vehicle: saline with Tween-80 87 % of control | dose: 80.0 mg/kg/injection, schedule: Q01DX009 (ip), vehicle: saline with Tween-80 91 % of control | dose: 120.0 mg/kg/injection, schedule: Q01DX009 (ip), vehicle: saline with Tween-80 87 % of control

O=C1CC(N2C(=O)c3ccccc3C2=O)C(=O)N1 (centres undefined)
inactive: dose: 25.0 mg/kg/injection, schedule: Q04DX003 (ip), vehicle: saline with Tween-80 101 % of control | [7] 103 % of control | [1] 103 % of control | [2] 99 % of control

CN(C)CCC(=O)c1ccccc1
inactive: dose: 25.0 mg/kg/injection, schedule: Q01DX009 (ip), vehicle: saline 100 % of control

O=C(c1cccs1)c1cccs1
inactive: [4] 101 % of control | [5] 108 % of control | [1] 102 % of control | [6] 92 % of control | [2] 90 % of control | dose: 400.0 mg/kg/injection, schedule: Q01DX009 (ip), vehicle: saline with Tween-80 99 % of control | [3] 112 % of control

CCC(=O)c1cc([N+](=O)[O-])ccc1N
inactive: [7] 90 % of control | [1] 95 % of control | [2] 109 % of control

Cc1ccc(S(=O)(=O)c2ccc(Sc3cccc[n+]3[O-])c3no[n+]([O-])c23)cc1
inactive: dose: 15.0 mg/kg/injection, schedule: Q01DX009 (ip), vehicle: saline with Tween-80 97 % of control | dose: 30.0 mg/kg/injection, schedule: Q01DX009 (ip), vehicle: saline with Tween-80 114 % of control | dose: 60.0 mg/kg/injection, schedule: Q01DX009 (ip), vehicle: saline with Tween-80 90 % of control

O=N[O-].O=N[O-].[Co].[NH-]CC[N-]CCO.[NH-]CC[N-]CCO
inactive: dose: 12.5 mg/kg/injection, schedule: Q01DX009 (ip), vehicle: water 102 % of control and 115 % of control | dose: 40.0 mg/kg/injection, schedule: Q01DX009 (ip), vehicle: water 118 % of control | dose: 50.0 mg/kg/injection, schedule: Q01DX009 (ip), vehicle: water 100 % of control and 111 % of control | dose: 100.0 mg/kg/injection, schedule: Q01DX009 (ip), vehicle: water 101 % of control

COC(=O)CCCCCCCCC[CH2][Hg][Cl]
inactive: dose: 6.25 mg/kg/injection, schedule: Q04DX003 (ip), vehicle: saline sonified 100 % of control | dose: 12.5 mg/kg/injection, schedule: Q04DX003 (ip), vehicle: saline sonified 100 % of control | dose: 25.0 mg/kg/injection, schedule: Q04DX003 (ip), vehicle: saline sonified 122 % of control

OCC(O)C(O)C(O)C(O)CO (centres undefined)
inactive: dose: 100.0 mg/kg/injection, schedule: Q01DX010 (ip), vehicle: carboxymethylcellulose (CMC) 100 % of control | dose: 100.0 mg/kg/injection, schedule: Q01DX010 (ip), vehicle: saline 95 % of control | dose: 400.0 mg/kg/injection, schedule: Q01DX010 (ip), vehicle: carboxymethylcellulose (CMC) 100 % of control | dose: 400.0 mg/kg/injection, schedule: Q01DX010 (ip), vehicle: saline 105 % of control and 110 % of control
